Source: ChEMBL document CHEMBL5678807, “A selective jumonji H3K27 demethylase inhibitor modulates the proinflammatory macrophage response” (Nature, 2012)

Tests used:
Macrophage [1] = assay: Antiinflammatory activity in human primary macrophages assessed as effect on LPS-induced IL16 gene expression at 30 uM measured after 2 hrs by RT-PCR array (reference value: 8635 a.u.); assay type: functional
Macrophage [2] = assay: Antiinflammatory activity in human primary macrophages assessed as effect on LPS-induced FASLG gene expression at 30 uM measured after 2 hrs by RT-PCR array (reference value: 73 a.u.); assay type: functional
Macrophage [3] = assay: Antiinflammatory activity in human primary macrophages assessed as effect on LPS-induced IL7 gene expression at 30 uM measured after 2 hrs by RT-PCR array (reference value: 60083 a.u.); assay type: functional
Macrophage [4] = assay: Antiinflammatory activity in human primary macrophages assessed as effect on LPS-induced GDF11 gene expression at 30 uM measured after 2 hrs by RT-PCR array (reference value: 115 a.u.); assay type: functional
Macrophage [5] = assay: Antiinflammatory activity in human primary macrophages assessed as effect on LPS-induced IL1B gene expression at 30 uM measured after 2 hrs by RT-PCR array (reference value: 15266918 a.u.); assay type: functional
Macrophage [6] = assay: Antiinflammatory activity in human primary macrophages assessed as effect on LPS-induced TNFSF4 gene expression at 30 uM measured after 2 hrs by RT-PCR array (reference value: 880 a.u.); assay type: functional
Macrophage [7] = assay: Antiinflammatory activity in human primary macrophages assessed as effect on LPS-induced IL24 gene expression at 30 uM measured after 2 hrs by RT-PCR array (reference value: 12164 a.u.); assay type: functional
Macrophage [8] = assay: Antiinflammatory activity in human primary macrophages assessed as effect on LPS-induced LTB gene expression at 30 uM measured after 2 hrs by RT-PCR array (reference value: 6025 a.u.); assay type: functional
Macrophage [9] = assay: Antiinflammatory activity in human primary macrophages assessed as effect on LPS-induced BMP1 gene expression at 30 uM measured after 2 hrs by RT-PCR array (reference value: 3930 a.u.); assay type: functional
Macrophage [10] = assay: Antiinflammatory activity in human primary macrophages assessed as effect on LPS-induced IL17C gene expression at 30 uM measured after 2 hrs by RT-PCR array (reference value: 157 a.u.); assay type: functional
Macrophage [11] = assay: Antiinflammatory activity in human primary macrophages assessed as effect on LPS-induced BMP8B gene expression at 30 uM measured after 2 hrs by RT-PCR array (reference value: 1117 a.u.); assay type: functional
Macrophage [12] = assay: Antiinflammatory activity in human primary macrophages assessed as effect on LPS-induced IL10 gene expression at 30 uM measured after 2 hrs by RT-PCR array (reference value: 47621 a.u.); assay type: functional
Macrophage [13] = assay: Antiinflammatory activity in human primary macrophages assessed as effect on LPS-induced IFNA4 gene expression at 30 uM measured after 2 hrs by RT-PCR array (reference value: 28 a.u.); assay type: functional
Macrophage [14] = assay: Antiinflammatory activity in human primary macrophages assessed as effect on LPS-induced PDGFA gene expression at 30 uM measured after 2 hrs by RT-PCR array (reference value: 235 a.u.); assay type: functional
Macrophage [15] = assay: Antiinflammatory activity in human primary macrophages assessed as effect on LPS-induced BMP2 gene expression at 30 uM measured after 2 hrs by RT-PCR array (reference value: 331 a.u.); assay type: functional
Macrophage [16] = assay: Antiinflammatory activity in human primary macrophages assessed as effect on LPS-induced TXLNA gene expression at 30 uM measured after 2 hrs by RT-PCR array (reference value: 8115 a.u.); assay type: functional
Macrophage [17] = assay: Antiinflammatory activity in human primary macrophages assessed as effect on LPS-induced TNFRSF11B gene expression at 30 uM measured after 2 hrs by RT-PCR array (reference value: 1609 a.u.); assay type: functional
Macrophage [18] = assay: Antiinflammatory activity in human primary macrophages assessed as effect on LPS-induced TNFSF8 gene expression at 30 uM measured after 2 hrs by RT-PCR array (reference value: 248127 a.u.); assay type: functional
Macrophage [19] = assay: Antiinflammatory activity in human primary macrophages assessed as effect on LPS-induced IFNA2 gene expression at 30 uM measured after 2 hrs by RT-PCR array (reference value: 1099 a.u.); assay type: functional
Adenosine receptor A2a = Adenosine receptor A2a (Homo sapiens, UniProt P29274); assay: Agonist activity at human adenosine A2a by TR-FRET assay; assay type: functional
Histone deacetylase 2 = Histone deacetylase 2 (Homo sapiens, UniProt Q92769); assay: Inhibition of human HDAC2 by FLINT assay
[20] = target: Beta-2 adrenergic receptor (Homo sapiens, UniProt P07550); assay: Agonist activity at human beta2 adrenoceptor by TR-FRET assay; assay type: functional
[21] = target: T1, Muscarinic acetylcholine receptor M2 (Homo sapiens, UniProt P08172); assay: Agonist activity at human CHRM2 by intracellular Ca fluorescence assay; assay type: functional, cell-based
T1 sequence (P08172 whole entry): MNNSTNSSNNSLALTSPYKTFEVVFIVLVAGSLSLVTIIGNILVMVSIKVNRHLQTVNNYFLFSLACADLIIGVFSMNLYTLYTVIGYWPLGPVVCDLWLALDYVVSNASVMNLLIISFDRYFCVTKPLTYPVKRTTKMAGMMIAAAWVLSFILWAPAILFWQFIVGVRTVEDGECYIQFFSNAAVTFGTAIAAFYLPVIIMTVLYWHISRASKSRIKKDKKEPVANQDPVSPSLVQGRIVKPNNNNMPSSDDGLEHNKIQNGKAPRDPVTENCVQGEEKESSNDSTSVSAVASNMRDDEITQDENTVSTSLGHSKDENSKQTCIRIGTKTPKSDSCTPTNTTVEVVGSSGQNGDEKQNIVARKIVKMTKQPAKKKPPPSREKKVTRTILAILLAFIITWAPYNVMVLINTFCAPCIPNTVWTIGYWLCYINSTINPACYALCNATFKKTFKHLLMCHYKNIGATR

D(2) dopamine receptor = D(2) dopamine receptor (Homo sapiens, UniProt P14416); assay: Antagonist activity at human dopamine 2 receptor by SPA; assay type: functional
[22] = target: Sodium channel protein type 5 subunit alpha (Homo sapiens, UniProt Q14524); assay: Blockade of human NaV1.5 by electrophysiology assay
[23] = target: T2, Acetylcholine receptor subunit alpha (Homo sapiens, UniProt P02708); assay: Agonist activity at human alpha 1 nAChR by intracellular Ca fluorescence assay; assay type: cell-based
[24] = target: Voltage-dependent L-type calcium channel subunit alpha-1C (Homo sapiens, UniProt Q13936); assay: Antagonist activity at human CaV1.2 (L-type) by intracellular Ca fluorescence assay; assay type: cell-based
[25] = target: 5-hydroxytryptamine receptor 2A (Homo sapiens, UniProt P28223); assay: Agonist activity at human 5-HT2A by intracellular Ca luminescence assay; assay type: functional, cell-based
[26] = Antagonist activity at human NR1A/NR2B by intracellular Ca fluorescence assay; assay type: cell-based
[27] = target: T2, Acetylcholine receptor subunit alpha; assay: Antagonist activity at human alpha 1 nAChR by intracellular Ca fluorescence assay; assay type: cell-based
[28] = target: Amine oxidase [flavin-containing] B (Homo sapiens, UniProt P27338); assay: Inhibition of human MAOB by FLINT assay
hERG (KCNH2) = hERG (KCNH2) (Homo sapiens, UniProt Q12809); assay: Blockade of human KCNH2 by electrophysiology assay; assay type: toxicity
Chain of hERG (KCNH2) (Q12809 whole entry): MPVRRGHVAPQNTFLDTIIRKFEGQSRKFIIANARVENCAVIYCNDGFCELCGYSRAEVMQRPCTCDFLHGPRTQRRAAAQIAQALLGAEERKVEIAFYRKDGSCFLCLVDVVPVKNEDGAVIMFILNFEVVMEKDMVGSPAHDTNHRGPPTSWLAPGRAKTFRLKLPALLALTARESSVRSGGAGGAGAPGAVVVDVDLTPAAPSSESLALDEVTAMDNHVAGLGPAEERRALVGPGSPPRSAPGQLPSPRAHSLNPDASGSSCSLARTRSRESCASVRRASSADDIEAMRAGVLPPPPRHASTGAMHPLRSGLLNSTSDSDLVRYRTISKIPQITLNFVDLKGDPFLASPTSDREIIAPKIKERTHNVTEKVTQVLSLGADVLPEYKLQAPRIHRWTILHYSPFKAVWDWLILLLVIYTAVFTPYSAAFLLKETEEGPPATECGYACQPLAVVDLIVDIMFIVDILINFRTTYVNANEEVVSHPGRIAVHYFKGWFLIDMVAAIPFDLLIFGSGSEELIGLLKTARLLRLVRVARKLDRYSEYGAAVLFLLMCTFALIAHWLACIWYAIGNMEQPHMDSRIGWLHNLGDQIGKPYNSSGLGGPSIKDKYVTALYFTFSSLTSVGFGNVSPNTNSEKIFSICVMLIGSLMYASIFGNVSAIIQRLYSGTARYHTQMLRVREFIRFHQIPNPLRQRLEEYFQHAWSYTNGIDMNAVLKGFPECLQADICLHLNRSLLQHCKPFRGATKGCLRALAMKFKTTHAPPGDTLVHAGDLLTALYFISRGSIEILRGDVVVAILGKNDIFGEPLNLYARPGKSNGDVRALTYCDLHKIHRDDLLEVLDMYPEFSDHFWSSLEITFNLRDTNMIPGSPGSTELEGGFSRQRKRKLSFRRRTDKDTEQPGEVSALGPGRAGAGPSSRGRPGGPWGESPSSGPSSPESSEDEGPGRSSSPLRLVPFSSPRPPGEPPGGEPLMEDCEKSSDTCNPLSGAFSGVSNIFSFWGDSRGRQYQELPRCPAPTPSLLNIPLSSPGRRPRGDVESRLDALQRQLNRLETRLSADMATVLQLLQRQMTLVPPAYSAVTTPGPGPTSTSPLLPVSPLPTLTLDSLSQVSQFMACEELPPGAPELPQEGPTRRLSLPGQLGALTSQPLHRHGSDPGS

T2 sequence (P02708 whole entry): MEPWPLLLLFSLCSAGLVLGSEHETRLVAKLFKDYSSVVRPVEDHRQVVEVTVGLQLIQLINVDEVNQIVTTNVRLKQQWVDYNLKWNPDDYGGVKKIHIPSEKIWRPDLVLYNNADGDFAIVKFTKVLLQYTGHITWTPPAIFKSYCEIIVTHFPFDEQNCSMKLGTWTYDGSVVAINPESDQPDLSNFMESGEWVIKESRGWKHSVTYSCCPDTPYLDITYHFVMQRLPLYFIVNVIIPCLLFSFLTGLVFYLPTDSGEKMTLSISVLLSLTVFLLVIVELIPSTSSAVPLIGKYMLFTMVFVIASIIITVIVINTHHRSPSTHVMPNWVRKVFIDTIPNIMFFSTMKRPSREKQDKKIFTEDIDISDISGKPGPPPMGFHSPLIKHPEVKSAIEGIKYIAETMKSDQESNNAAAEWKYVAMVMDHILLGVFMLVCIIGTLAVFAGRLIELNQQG
Chain of Sodium channel protein type 5 subunit alpha (Q14524 whole entry): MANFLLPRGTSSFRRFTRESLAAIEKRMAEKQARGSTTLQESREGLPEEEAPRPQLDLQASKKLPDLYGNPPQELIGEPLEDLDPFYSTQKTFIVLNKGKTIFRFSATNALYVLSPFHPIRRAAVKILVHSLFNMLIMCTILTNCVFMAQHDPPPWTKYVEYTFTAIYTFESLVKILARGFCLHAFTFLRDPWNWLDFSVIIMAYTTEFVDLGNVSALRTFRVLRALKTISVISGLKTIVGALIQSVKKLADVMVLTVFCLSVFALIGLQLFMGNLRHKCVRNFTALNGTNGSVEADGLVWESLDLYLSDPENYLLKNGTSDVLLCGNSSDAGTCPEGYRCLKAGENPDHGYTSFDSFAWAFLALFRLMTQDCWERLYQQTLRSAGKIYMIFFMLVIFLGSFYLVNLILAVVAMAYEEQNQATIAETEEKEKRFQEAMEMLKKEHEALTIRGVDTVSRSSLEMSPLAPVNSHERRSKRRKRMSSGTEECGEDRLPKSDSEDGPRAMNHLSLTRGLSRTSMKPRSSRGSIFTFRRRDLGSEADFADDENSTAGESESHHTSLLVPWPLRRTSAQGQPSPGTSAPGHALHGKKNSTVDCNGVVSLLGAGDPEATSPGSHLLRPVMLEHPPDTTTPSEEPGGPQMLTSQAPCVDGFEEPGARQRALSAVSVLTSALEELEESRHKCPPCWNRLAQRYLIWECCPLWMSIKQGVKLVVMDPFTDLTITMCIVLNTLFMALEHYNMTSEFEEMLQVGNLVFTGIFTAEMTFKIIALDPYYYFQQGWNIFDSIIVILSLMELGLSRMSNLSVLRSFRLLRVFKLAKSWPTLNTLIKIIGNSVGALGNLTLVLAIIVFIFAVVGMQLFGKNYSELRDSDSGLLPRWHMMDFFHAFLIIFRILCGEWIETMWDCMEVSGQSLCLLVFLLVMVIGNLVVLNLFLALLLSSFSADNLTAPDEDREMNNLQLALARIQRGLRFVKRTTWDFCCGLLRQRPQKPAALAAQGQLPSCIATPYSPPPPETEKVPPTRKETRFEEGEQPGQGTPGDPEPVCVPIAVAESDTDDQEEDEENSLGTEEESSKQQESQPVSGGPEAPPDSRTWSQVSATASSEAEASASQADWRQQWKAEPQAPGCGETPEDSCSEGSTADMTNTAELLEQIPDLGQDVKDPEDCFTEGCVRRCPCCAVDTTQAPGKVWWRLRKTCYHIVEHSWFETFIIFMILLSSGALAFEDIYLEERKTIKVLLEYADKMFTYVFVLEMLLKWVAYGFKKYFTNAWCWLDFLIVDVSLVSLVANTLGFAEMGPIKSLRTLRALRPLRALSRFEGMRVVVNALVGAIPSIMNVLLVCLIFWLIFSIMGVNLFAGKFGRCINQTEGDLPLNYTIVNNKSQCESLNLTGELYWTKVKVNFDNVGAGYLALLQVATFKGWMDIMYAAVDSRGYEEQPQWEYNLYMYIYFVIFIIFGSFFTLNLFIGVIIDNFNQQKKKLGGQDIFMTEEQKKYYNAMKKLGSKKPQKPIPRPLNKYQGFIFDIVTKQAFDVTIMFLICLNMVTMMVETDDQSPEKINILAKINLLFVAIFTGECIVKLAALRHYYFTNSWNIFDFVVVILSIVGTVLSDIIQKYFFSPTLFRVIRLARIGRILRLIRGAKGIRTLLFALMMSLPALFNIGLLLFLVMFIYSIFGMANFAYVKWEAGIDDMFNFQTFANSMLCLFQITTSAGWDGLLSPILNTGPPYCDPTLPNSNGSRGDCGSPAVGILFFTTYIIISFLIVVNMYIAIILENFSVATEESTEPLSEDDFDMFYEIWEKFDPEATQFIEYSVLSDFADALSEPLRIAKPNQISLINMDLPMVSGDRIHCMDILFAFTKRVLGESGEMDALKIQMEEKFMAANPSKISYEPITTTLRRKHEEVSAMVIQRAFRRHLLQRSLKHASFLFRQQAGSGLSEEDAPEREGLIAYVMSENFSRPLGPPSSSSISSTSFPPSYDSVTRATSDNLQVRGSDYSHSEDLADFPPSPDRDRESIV
Chain of 5-hydroxytryptamine receptor 2A (P28223 whole entry): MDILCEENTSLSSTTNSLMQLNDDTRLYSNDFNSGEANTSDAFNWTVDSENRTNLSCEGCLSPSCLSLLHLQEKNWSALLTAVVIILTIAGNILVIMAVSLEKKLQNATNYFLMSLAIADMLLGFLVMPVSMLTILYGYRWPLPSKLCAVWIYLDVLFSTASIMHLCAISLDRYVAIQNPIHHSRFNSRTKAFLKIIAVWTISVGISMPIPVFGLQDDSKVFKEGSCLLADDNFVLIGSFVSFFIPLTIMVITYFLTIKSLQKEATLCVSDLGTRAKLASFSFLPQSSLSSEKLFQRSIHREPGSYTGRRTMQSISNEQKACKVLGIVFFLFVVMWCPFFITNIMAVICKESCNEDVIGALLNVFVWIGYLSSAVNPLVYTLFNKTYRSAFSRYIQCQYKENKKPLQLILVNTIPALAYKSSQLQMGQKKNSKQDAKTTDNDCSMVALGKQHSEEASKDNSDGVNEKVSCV
Chain of Beta-2 adrenergic receptor (P07550 whole entry): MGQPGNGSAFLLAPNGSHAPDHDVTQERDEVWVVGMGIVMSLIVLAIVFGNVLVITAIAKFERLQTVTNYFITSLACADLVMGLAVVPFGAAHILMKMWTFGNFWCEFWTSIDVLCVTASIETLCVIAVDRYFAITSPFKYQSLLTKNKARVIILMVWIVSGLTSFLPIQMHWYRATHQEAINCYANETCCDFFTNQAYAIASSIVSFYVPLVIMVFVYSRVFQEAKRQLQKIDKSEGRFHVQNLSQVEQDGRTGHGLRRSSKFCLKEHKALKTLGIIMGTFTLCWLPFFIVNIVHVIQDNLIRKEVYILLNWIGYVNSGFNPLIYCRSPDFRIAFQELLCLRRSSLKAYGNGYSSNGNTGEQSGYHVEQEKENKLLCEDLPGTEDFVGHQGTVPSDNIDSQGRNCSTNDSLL
Chain of Histone deacetylase 2 (Q92769 whole entry): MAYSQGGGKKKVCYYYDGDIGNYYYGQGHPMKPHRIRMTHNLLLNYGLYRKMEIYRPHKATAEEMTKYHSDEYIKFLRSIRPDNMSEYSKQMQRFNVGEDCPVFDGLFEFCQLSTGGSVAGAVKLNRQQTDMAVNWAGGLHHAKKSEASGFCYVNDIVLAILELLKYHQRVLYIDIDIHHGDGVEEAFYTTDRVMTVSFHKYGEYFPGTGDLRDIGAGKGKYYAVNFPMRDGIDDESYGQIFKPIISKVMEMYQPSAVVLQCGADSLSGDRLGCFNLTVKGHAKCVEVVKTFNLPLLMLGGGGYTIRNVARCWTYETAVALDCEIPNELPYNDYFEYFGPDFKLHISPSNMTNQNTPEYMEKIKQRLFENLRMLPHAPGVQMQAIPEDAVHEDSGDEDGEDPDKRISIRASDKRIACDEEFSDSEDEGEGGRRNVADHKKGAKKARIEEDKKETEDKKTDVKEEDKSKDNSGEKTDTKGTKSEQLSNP

Structure (SMILES): CCOC(=O)CCNc1cc(N2CCc3ccccc3CC2)nc(-c2ccccn2)n1
- Activity (Macrophage [1]): 6284 a.u.
- Activity (Macrophage [2]): 19 a.u.
- Activity (Macrophage [3]): 4135 a.u.
- Activity (Macrophage [4]): 31 a.u.
- Activity (Macrophage [5]): 3032303 a.u.
- Activity (Macrophage [6]): 1586 a.u.
- Activity (Macrophage [7]): 11754 a.u.
- Activity (Macrophage [8]): 5493 a.u.
- Activity (Macrophage [9]): 2627 a.u.
- Activity (Macrophage [10]): 107 a.u.
- Activity (Macrophage [11]): 820 a.u.
- Activity (Macrophage [12]): 4765 a.u.
- Activity (Macrophage [13]): 25 a.u.
- Activity (Macrophage [14]): 392 a.u.
- Activity (Macrophage [15]): 3 a.u.
- Activity (Macrophage [16]): 5959 a.u.
- Activity (Macrophage [17]): 267 a.u.
- Activity (Macrophage [18]): 17105 a.u.
- Activity (Macrophage [19]): 641 a.u.

Structure (SMILES): O=C(O)CCNc1cc(N2CCc3ccccc3CC2)nc(-c2ccccn2)n1
- XC50 (Adenosine receptor A2a): > 32 µM
- XC50 (Histone deacetylase 2): > 300 µM
- XC50 [20]: > 32 µM
- XC50 [21]: > 16 µM
- XC50 (D(2) dopamine receptor): > 100 µM
- XC50 [22]: 79 µM
- XC50 [23]: > 50 µM
- XC50 [24]: > 16 µM
- XC50 [25]: > 40 µM
- XC50 [26]: > 50 µM
- XC50 [27]: 50 µM
- XC50 [28]: 25 µM
- XC50 (hERG (KCNH2)): 8 µM

Structure (SMILES): O=C(O)CCNc1cc(N2CCc3ccccc3CC2)nc(-c2cccnc2)n1
- XC50 (Adenosine receptor A2a): > 32 µM
- XC50 (Histone deacetylase 2): > 300 µM
- XC50 [20]: > 32 µM
- XC50 [21]: > 16 µM
- XC50 (D(2) dopamine receptor): > 100 µM
- XC50 [22]: 50 µM
- XC50 [23]: > 50 µM
- XC50 [24]: > 16 µM
- XC50 [25]: > 40 µM
- XC50 [26]: > 50 µM
- XC50 [27]: 16 µM
- XC50 [28]: 25 µM
- XC50 (hERG (KCNH2)): > 50 µM

Structure (SMILES): CCOC(=O)CCNc1cc(N2CCc3ccccc3CC2)nc(-c2cccnc2)n1
- Activity (Macrophage [1]): 4600 a.u.
- Activity (Macrophage [2]): 45 a.u.
- Activity (Macrophage [3]): 24543 a.u.
- Activity (Macrophage [4]): 110 a.u.
- Activity (Macrophage [5]): 10300355 a.u.
- Activity (Macrophage [6]): 512 a.u.
- Activity (Macrophage [7]): 10100 a.u.
- Activity (Macrophage [8]): 5856 a.u.
- Activity (Macrophage [9]): 2746 a.u.
- Activity (Macrophage [10]): 253 a.u.
- Activity (Macrophage [11]): 1235 a.u.
- Activity (Macrophage [12]): 31748 a.u.
- Activity (Macrophage [13]): 1 a.u.
- Activity (Macrophage [14]): 239 a.u.
- Activity (Macrophage [15]): 347 a.u.
- Activity (Macrophage [16]): 6886 a.u.
- Activity (Macrophage [17]): 784 a.u.
- Activity (Macrophage [18]): 115933 a.u.
- Activity (Macrophage [19]): 65 a.u.
